Literature values, collected in patent publication US10143659B2, “Melt-extruded release controlled pharmaceutical composition and oral dosage form comprising the same” (Samyang Biopharmaceuticals Corporation, priority 2012, dated 2018).

For `Cc1nc2n(c(=O)c1CCN1CCC(c3noc4cc(F)ccc34)CC1)CCCC2O` (centres unmarked) [Paliperidone], the “solubility in methylene chloride, methanol and 0.1N hydrochloric acid” value (methylene chloride, methanol, 0.1N hydrochloric acid) is given as “well dissolved” and the solubility in water (water) is given as “poorly soluble”.
